Measurements published in patent publication US20250000846A1, “METHODS OF TREATMENT OR PREVENTION OF ACUTE BRAIN OR NERVE INJURIES” (Annovis Bio, Inc., priority 2015, published 2025).

How the values were obtained:
retinal neurons = assay: Retinal ischemia-reperfusion (IR), Cell Death ELISA of retina; assay type: in vivo, Sprague-Dawley rats; settings: posiphen tartrate 30 mg/kg oral gavage once per day
Excerpt: IR is a well-established experimental model of glaucoma as well as neuronal cell death in other retinal diseases. IR was induced on one eye of each rat while the opposite eye served as an internal control. Transient IR was induced by raising the intraocular pressure by a controlled micro-injection of saline into the anterior chamber of the eye. This approach is well established to induce large amounts of apoptotic cell death in the retina, beginning within hours after the reperfusion and continuing for several days, leading to a loss of about 50% of the retina. There would also be a dramatic and persistent increase in the permeability of the vasculature of the inner retina during this period, which may lead to edema.
Adult male Sprague-Dawley rats (approx. 450 g, n=8) were housed under normal 12 hr light/dark conditions with free access to food and water. Rats were given posiphen tartrate (30 mg/kg body weight, delivered in 15 mg/ml water) or an equivalent volume of water (vehicle) by oral gavage once per day. Gavage was performed daily over three days and then on the fourth day IR was induced in anesthetized rats (ketamine:xylazine, 100:10 mg/kg, i.p.). […] The retinas were homogenized and fractionated to obtain a cytoplasmic sample which was assessed for nucleosome content in duplicate, using the Cell Death ELISA (Roche). Data were averaged and expressed as optical density (OD). […]

[1] = system: TH+ terminals in the striatum; assay: Fluid percussion injury (mild TBI), tyrosine hydroxylase (TH) immunoreactivity in striatum; assay type: in vivo, rats
Protocol: Rats were subjected to fluid percussion injury (FPI) or sham operation to one side of the brain using the same procedures described in Griesbach et al (Brain Research, 1288: 105-115,2009, PMCID:PMC2735616) and Hutson et al (J. Neurotrauma, Jun. 6, 2011; PMID:21644813). […] About 5 to 30 minutes after FPI or sham operation, the rats were administered with saline or posiphen tartrate at a dose of 2.5, 5 or 10 mg/kg body weight intraperitoneally and also daily for the next 28 to 32 days. At 90 minutes after the last saline or posiphen treatment, all the rats were sacrificed and sections of the brain of each of the rats were stained for tyrosine hydroxylase (TH), wherein TH stains only live cells. The amounts of TH immunoreactivity in the whole striatum of the brain slices were measured, Stereological analysis of dopaminergic (DA) neurons in the substantia nigra was conducted to determine whether posiphen would block the TBI-induced loss of DA neurons ipsilateral and contralateral to the FPI injury, using procedures described in Johnson et al (Brain Pathol. Jun. 29, 2011, doi: 10.1111/j.1750-3639.2011.00513.x) and Hoshino et al (Neurol. Med. Chir. (Tokyo), 2003 April; 43 (4): 165-74). The groups of rats included the rats with LOC above/at the median value. In FIG. 2, the sham operated group was compared with the vehicle group with two-way ANOVA, Bonferroni comparisons, wherein *p<0.05. In FIG. 3, the vehicle group was compared with the posiphen-treatment groups with one-way ANOVA, Bonferroni comparisons, wherein ^#p<0.05.

[2] = system: IBA-1+ microglia cells in the substantia nigra; assay: Fluid percussion injury, microglial activation by diameter of IBA-1-positive cells in substantia nigra; assay type: in vivo, rats; settings: 10 mg/kg
Protocol: Because FPI can induce microglial activation according to Hutson et al (J. Neurotrauma, Jun. 6, 2011; PMID:21644813), whether posiphen would reverse this pathological response using quantitative measures was tested in the vehicle or posiphen tartrate treated (10 mg/kg) rats from Example 2 (part of the brain from each of the euthanized rat was stained for tyrosine hydroxylase in Example 2 and another part of the brain was stained for microglia in Example 3). Microglial activation was assessed by quantitative measure of the diameter of IBA-1-positive cells, wherein IBA-1 stands for ionized calcium adaptor binding protein.
Analysis was done on a Leica DM-LB microscope with a Ludl XYZ motorized stage and z-axis microcator (MT12, Heidenheim, Traunreut, Germany) using StereoInvestigator software
(MicroBrightField, Colchester, VT). A contour was drawn to delineate the substantia nigra under the 5× objective lens to ensure anatomical accuracy. Following delineation, the diameters of microglial cell bodies were measured in the first counting frame (100 μm) and then in every fifth counting frame at 40× magnification. This sampling frequency was chosen in order to count approximately 30-50 IBA-1+ cells in each side of the substantia nigra. The first counting frame was always positioned in the upper left corner of the contour and systematically moved from left to right and from top to bottom until the entire delineated contour region was sampled. The number of IBA-1+ microglia cells with cell diameters ranging from 1 μm to 14 μm was then normalized to the total number counted in each section and expressed as a percentage of total microglia. The results are shown in FIG. 4 (wherein the percent of IBA-1+ cells was plotted on the vertical axis, and the microglial cell diameter in um was plotted on the horizontal axis). In FIG. 4, the blank portion of each data bar represents the mean % of IB A-1+ cells with the solid or striped portion at the top of the bar representing the 95% confidence interval. In each pair of data bars in FIG. 4, the bar on the left having a solid portion at the top represents data from the vehicle-treated group, while the bar on the right having a striped portion at the top represents data from the 10 mg/kg posiphen-treated group, wherein the data of the posiphen-treated group (the bar on the right) were compared with the data of the vehicle-treated group (the bar on the left) with Bootstrapping method. The asterisks (*) at the top of some of the bars of the 10 mg/kg posiphen-treated group indicate statistical significance at p<0.05 when compared with the data of the corresponding bar of the vehicle-treated group as analyzed with the Bootstrapping method. Posiphen increased the number of resting microglia and reduced the number of activated microglia.

[3] = system: rats subjected to mild traumatic brain injury; assay: Working memory test in Morris water maze after fluid percussion injury; assay type: in vivo
Protocol: The vehicle or posiphen tartrate treated rats from Example 2 were also subjected to working memory test in Morris water maze. Each of the rats was individually tested in the Morris water maze, which had 4 release points for putting the rat into the water and 4 platforms for the rat to swim to. For a total of 3 consecutive days (on one and two days before the last vehicle or posiphen treatment, and also on the day of the last vehicle or posiphen treatment before euthanasia), the rats were tested on their ability to find the 4 platform positions, using paired trials (4 paired trials per day). In each pair of the trials, the first trial was the learning trial, for the rat to learn the position of a platform, and the second trial was the memory trial for testing the memory of the rat to swim to the platform that the rat learned in the learning trial. In the learning trial, each of the rats was allowed a maximum swim time of 90 seconds to swim to the platform, and guided to the platform if needed after 90 seconds. The memory trial was started 5 seconds after the completion of the learning trial and the time for the rat to reach the platform by swimming in the maze in the memory trial was recorded. The 4 platform positions were switched after every pair of trials. The time interval between the learning trials of two consecutive pairs of trials in a day was 5 minutes. […]

CN1CC[C@]2(C)c3cc(OC(=O)Nc4ccccc4)ccc3N(C)C12 (stereo partly drawn) [posiphen, (3aR)-1,3a,8-trimethyl-1,2,3,3a,8,8a-hexahydropyrrolo[2,3-b]indol-5-yl phenylcarbamate]
number of dead nerve cells in retina of IR eye (IR-Pos) versus opposite eye (control-Pos) (retinal neurons): only slightly more
retinal neurons rescued (retinal neurons; eye subjected to transient IR (IR-Pos), N=6): 72%
number of surviving cells in the ipsilateral area of the brain (striatum) ([1]; 2.5, 5 and 10 mg/kg i.p. daily for 28 to 32 days, all 3 doses): statistically significant increase
TH+ fluorescence intensity versus vehicle-treated group ([1]; all posiphen-treated groups (2.5, 5, 10 mg/kg), one-way ANOVA, p<0.05): significantly higher
number of nerve cells of the striatum in the contralateral part of the brain ([1]; highest dose of 10 mg/kg i.p. daily): an increase
protection of the TH+ cells in ipsilateral striatum (whole, rostral, medial and caudal) ([1]; posiphen treated animals, ipsilateral side): full protection
FPI-induced decrease in the TH+ terminals in the striatum ([1]; rat, in vivo): attenuated
brain inflammation after traumatic brain injury [2]: decreased
FPI-increased microglia activation in the substantia nigra ipsilateral to the injury ([2]; statistically significant): attenuated
number of activated microglia ([2]; versus vehicle-treated group): reduced
number of resting microglia ([2]; versus vehicle-treated group): increased
latency to find the platform versus vehicle-treated group ([3]; 2.5 mg/kg and 5 mg/kg, p=0.0961): non-significant trend toward a reduction
latency to reach the platform in memory trials versus vehicle-treated group ([3]; 10 mg/kg, p=0.0335): amelioration of this deficit
